Assay results: patent US20190298722A1, “USE OF AN INHIBITOR OF THE DE NOVO SYNTHESIS OF PURINES, IN THE TREATMENT OF ADENYLOSUCCINATE LYASE DEFICIENCY” (ASSISTANCE PUBLIQUE-HOPITAUX DE PARIS, priority 2016, published 2019)

Tested on: patients with ADSL deficiency
Assay: Vineland scale (adaptive skills) during allopurinol treatment
Assay type: in vivo, human
Parameters: Vineland standardized score, Communication / Vineland standardized score, Daily life / Vineland standardized score, Social skills / Vineland standardized score, Motor skills / Vineland standardized score, TOTAL: scale not given here
Procedure: Clinical characterization of the patients was carried out before starting treatment (T1) in accordance with the ICD 10 classification, using standardized tools: • A semi-structured interview by means of the Autism Diagnostic Interview (ADI-R): this is a semi-structured interview intended to classify symptoms reported by parents in the domain of communication, social interaction, restricted and stereotyped behaviours or sensory issues. Scores are established for the current period and, if necessary, for the period when the difficulties were most serious, between the ages of 4 and 5 years. A score is established for each of the three domains based on responses provided by the parents and the judgement of the interviewer. Scores above the thresholds in the 3 domains support a diagnosis of autism, and in one or two domains support a diagnosis of a pervasive developmental disorder. Scores below the thresholds in the 3 domains make it possible to rule out diagnosis of an autism spectrum disorder if the ADI-R results converge with the clinical assessment of the child. • A semi-structured interview using the Vineland 2 scale: this is a semi-structured interview which makes it possible to assess the adaptive skills of the child in the domains of communication, daily life, social skills and motor skills. From the description of their child's daily living skills, equivalent developmental ages and standardized scores are calculated, making it possible to describe the developmental and adaptive profile of the child. • A developmental assessment using the Psychoeducational Profile (PEP 3): this is a direct assessment of the skills of the child in several domains of their development, particularly suited to children who display a developmental disability. Six domains of development are assessed: verbal and preverbal cognition (VPC), expressive language (EL), receptive language (RL), gross motor skills (GM), fine motor skills (FM) and visual-motor imitation (VMI). The results are expressed in terms of equivalent developmental age and emerging score, when the exercises are partially completed. The number of emerging skills, or the difference between the actual ages and the emerging scores, are evidence of the development potential of the children. • The Conners scale: this is an assessment scale intended to quantify the symptoms of inattentiveness, agitation, impulsiveness, anxiety, somatization, behavioural difficulties and learning difficulties. There are several versions of the questionnaire, one for parents, the other for teachers or professionals. The scoring makes it possible to obtain an overall standardized score, considered to be significant when it is greater than 1.5.
Clinical re-assessments were carried out 6 months and one year after treatment with allopurinol and compared to the first assessment in the absence of treatment with allopurinol. They comprised: • At 6 months: scoring of the Vineland and Conners scales • At 12 months: scoring of the Vineland and Conners scales and completion of PEP-3.
Clinical progress at 200 mg of allopurinol was measured for each child based on the Conner and Vineland scale scores before treatment (T1), at 6 months (T2) and at 12 months of treatment (T3) with regard to behaviour and function.

[1] = Patient 1, T2 (6 months), T1 69
[2] = Patient 1, T3 (12 months), T1 69

O=c1ncnc2[nH][nH]cc1-2 [allopurinol, 1,2-dihydro-4H-pyrazolo[3,4-d]pyrimidin-4-one]
standardized scores on the Vineland scale in all domains (3 patients, during treatment, more pronounced for communication): improvement | Vineland standardized score, Communication (Patient 1, T2 (6 months), T1 67): 65 | Vineland standardized score, Daily life [1]: 71 | Vineland standardized score, TOTAL [1]: 76 | Vineland standardized score, Social skills (Patient 1, T2 (6 months), T1 73): 66 | Vineland standardized score, Communication (Patient 1, T3 (12 months), T1 67): 75 | Vineland standardized score, Daily life [2]: 74 | Vineland standardized score, TOTAL [2]: 74 | Vineland standardized score, Social skills (Patient 1, T3 (12 months), T1 73): 75 | Vineland standardized score, Communication (Patient 2, T2 (6 months), T1 57): 72 | Vineland standardized score, Motor skills (Patient 2, T2 (6 months), T1 61): 67 | Vineland standardized score, TOTAL (Patient 2, T2 (6 months), T1 69): 79 | Vineland standardized score, Social skills (Patient 2, T2 (6 months), T1 79): 83 | Vineland standardized score, Daily life (Patient 2, T2 (6 months), T1 81): 87 | Vineland standardized score, Communication (Patient 2, T3 (12 months), T1 57): 75 | Vineland standardized score, Motor skills (Patient 2, T3 (12 months), T1 61): 85 | Vineland standardized score, TOTAL (Patient 2, T3 (12 months), T1 69): 82 | Vineland standardized score, Social skills (Patient 2, T3 (12 months), T1 79): 83 | Vineland standardized score, Daily life (Patient 2, T3 (12 months), T1 81): 87 | Vineland standardized score, Communication (Patient 3, T2 (6 months), T1 65): 69 | Vineland standardized score, Motor skills (Patient 3, T2 (6 months), T1 67): 70 | Vineland standardized score, TOTAL (Patient 3, T2 (6 months), T1 71): 77 | Vineland standardized score, Daily life (Patient 3, T2 (6 months), T1 75): 87 | Vineland standardized score, Social skills (Patient 3, T2 (6 months), T1 76): 83 | Vineland standardized score, Communication (Patient 3, T3 (12 months), T1 65): 74 | Vineland standardized score, Motor skills (Patient 3, T3 (12 months), T1 67): 72 | Vineland standardized score, TOTAL (Patient 3, T3 (12 months), T1 71): 80 | Vineland standardized score, Daily life (Patient 3, T3 (12 months), T1 75): 87 | Vineland standardized score, Social skills (Patient 3, T3 (12 months), T1 76): 88
